According to article PMC8267472, “The Effect of Cream and Gel Vehicles on the Percutaneous Absorption and Skin Retention of a New Eugenol Derivative With Antioxidant Activity” (Frontiers in Pharmacology, 2021):
Like-named read-outs stand apart in the source and are kept apart here.

Experiments:
[1] = In vitro skin permeation in Franz diffusion cell; type: in vitro ADME, porcine
Protocol: The skin permeability for vehicles containing eugenol and EDChA were assessed in a Franz diffusion cell consisted of a 2 ml donor chamber and an 8 ml acceptor chamber. The permeation area was 1 cm^2. The acceptor fluid, mixed with a magnetic stirrer, was a PBS (phosphate-buffered saline, pH 7.4) solution that maintained the physiological pH. […] Before starting the test, Franz diffusion cells were allowed to equilibrate at 37°C for 15 min. Porcine skin was used for the study due to its similar permeability properties to human skin. The skin was from a local slaughterhouse. A fresh portion of skin from the abdomen was washed several times with a solution of PBS. Skin with a thickness of 0.5 mm was cut with a dermatome, and then it was wrapped in aluminum foil and frozen at –20°C for a maximum of 3 months. […] Before the study, the skin was thawed at room temperature for about 30 min, and then it was soaked in a PBS solution for 15 min to hydrate it. In the next stage, the skin was mounted in Franz diffusion cells. The integrity of skin was checked 1 h after its installation in the Franz diffusion chamber (SES GmbH Analyze Systeme, Germany). […] To make the measurement, the tips of the probes were immersed in the donor and acceptor chambers filled with the PBS solution.
Preparations (1.000 g) containing one of the test compound (eugenol and EDChA) were placed in the donor chamber. All donor chambers were closed with a plastic stopper to prevent excessive evaporation of the vehicle. […] The samples were analyzed by high-performance liquid chromatography (HPLC).
(§1) The permeation rate was determined based on the amount of permeated compound over a given period (μg/cm^2/h).
(§2) The samples were analyzed by high-performance liquid chromatography (HPLC) with a UV detector (Knauer, Berlin, Germany). […] The flow rate of the mobile phase, consisted of acetonitrile, water, and MeOH (28:64:8, by vol), was 1 ml/min. Twenty microliters of each analyzed sample was injected onto the column.

[2] = Total polyphenole content by Folin-Ciocalteu method on acceptor fluid and solution after skin extraction
Protocol: The antioxidant activity of acceptor fluid taken after 24 h of permeation, and solutions obtained after skin extraction performed after the experiment was determined using the DPPH (according to the procedure described above) ([Brand-Williams et al., 1995]; [Makuch et al., 2020]), ABTS ([Makuch et al., 2020]) and Folin–Ciocalteau ([Nowak et al., 2019]; [Makuch et al., 2020]) methods. The ABTS assay is based on the generation of a blue/green ABTS radical, which is applicable to both hydrophilic and lipophilic antioxidant systems; whereas DPPH assay uses a radical dissolved in organic media and is, therefore, applicable to hydrophobic systems ([Molyneux 2004]). To determine the total content of phenolic compounds in the tested samples the method based on the use of the Folin–Ciocalteu reagent in alkaline medium was applied. The reaction is based on the spectrophotometrically recorded color change of the test solution from yellow to blue. Folin–Ciocalteu reagent was diluted tenfold with water in a dark bottle and incubated at room temperature for 60 min. […] The cuvette was sealed with a stopper and incubated for 15 min at room temperature. […]

[3] = Skin accumulation (extraction of skin after the permeation experiment); type: in vitro ADME, porcine; settings: after 24 h experiment
Protocol: After completion of permeation experiment, the skin was extracted to estimate the residual amount of tested active ingredients accumulated in it. […] Extraction was carried out as follows: after the experiment was completed, the Franz diffusion chambers were dismantled, while the skin surface was washed three times with an aqueous solution of sodium lauryl sulfate (at a concentration of 0.5% w/w) to rinse of the excess of vehicle containing test compound. A patch (1 cm^2 diffusion surface) was cut from the skin prepared in this way, dried at room temperature, and then weighed and cut into smaller pieces. […] The obtained extracts were then centrifuged at 3,500 rpm for 5 min. The supernatant was analyzed by HPLC to determine the content of active ingredients, while tests on the antioxidant activity of the obtained extracts was evaluated using the DPPH, Folin–Ciocalteau, and ABTS methods.
as §1, §2

[4] = DPPH radical reduction by ethanolic solutions of eugenol and EDChA (IC50); type: biochemical; settings: ethanolic solution, 10 min incubation, 517 nm; read-out: IC50, concentration reducing 50% of free radicals (DPPH method)
Protocol: Antioxidative activity of ethanolic solutions of eugenol and its new derivative (EDChA) were determined using spectrophotometric method based on DPPH radical reduction as described elsewhere ([Brand-Williams et al., 1995]; [Makuch et al., 2020]). The absorbance at the wavelength of 517 nm was measured using Spectroquant Pharo 300 (Merck, Germany). The antioxidant activity of eugenol and its ester was measured as follows: to 2,850 µl of DPPH ethanolic solution (absorbance at 517 nm 1.00 ± 0.02) 150 µl of the sample (containing one of the tested compound at a concentration of 1.000 w/w) was added. The concentration of the analyzed sample in DPPH ethanolic solution was 0.050% w/w. The tube was wrapped in aluminum foil, sealed with a stopper and incubated for 10 min at room temperature. Each sample was prepared in triplicate. After incubation, spectrophotometric measurements were carried out at 517 nm. Solvent applied to obtain extracts was used as reference. The results were expressed as radical scavenging activity (RSA) ([Nowak et al., 2019]). For each studied compound calibration curve of RSA vs. concentration (0.006–50.000% w/v) was prepared to calculate IC50, i.e. the concentration of the compound reducing 50% of free radicals. The concentration range of the analyzed samples in DPPH ethanolic solution were 0.0003–2.5000% w/v.

[5] = set-up: method as in Floegel et al., 2011; settings: literature value; ref Floegel et al., 2011; read-out: IC50 described in the literature (DPPH); cited from earlier work
[6] = shake-flask method; ref Makuch et al., 2020; cited from earlier work

Row | Cumulative mass of substance after 24 h of permeation test ([1]; cream vehicles, 1.000% w/w active, acceptor PBS pH 7.4, 1 cm^2) | Mass of substance in the acceptor fluid after 24 h of permeation ([1]; gel vehicles, 1.000% w/w active, acceptor PBS pH 7.4, 1 cm^2) | Skin accumulation of substance ([3]; cream vehicles) | Skin accumulation of substance ([3]; gel vehicles) | SMILES | Antioxidant activity (Folin-Ciocalteu method) of solution obtained after skin extraction ([2]; cream vehicle) | IC50 [4] | Cumulative mass of substance after 24 h of permeation test ([1]; pig, 24 h, 1 % w/w, pH 7.4) | Mass of substance in the acceptor fluid after 24 h of permeation ([1]; pig, 24 h, 1 % w/w, pH 7.4) | Total polyphenole content (folin-ciocalteu method), solution after skin extraction ([2]; cream vehicles) | IC50 [5] | log p [6]
1 | 19.6 ± 1.8 µg | 28.8 ± 2.6 µg | 173.9 ± 8.4 µg/cm^2 skin | 255.9 ± 20.1 µg/cm^2 skin | C=CCc1ccc(OC(=O)C(Cl)Cl)c(OC)c1 [EDChA, eugenyl dichloroacetate] | 0.3 ± 0.1 mmol GA/dm^3 | 4.28 mM | – | – | – | – | –
2 | – | – | – | – | C=CCc1ccc(O)c(OC)c1 [Eugenol, 4-allyl-2-methoxyphenol] | – | 0.0061 mM | 20.5 ± 0.8 µg | 31.3 ± 4.3 µg | 0.2 ± 0.1 mmol GA/dm^3 | 50.4 µM | 2.20 ± 0.001
